Measured values as given in publication PMC12518693, “Potent Fluorescent Probe for Target‐Engagement Studies of Allosteric Pyruvate Kinase Modulators” (Angewandte Chemie (International Ed. in English), 2025).

How the values were obtained:
[1] = target: PKL (Homo sapiens, UniProt P30613); assay: HepG2 PKM2 KO cell lysate PKL activity assay; settings: HepG2 PKM2 KO cells, 48 h, mean ± SE n=3
Description: These predominantly express PKL.
HepG2 PKM2 KO cells (Synthego) were plated in 6 well plates at cell densities of 2 x 10^5 cells/well and incubated for 24 h at 37 °C and 5% CO2. Compounds were added to the cells in different concentrations (0.1, 1, 10 µM) and the cells were further incubated for 48 h. The control cells received DMSO as vehicle.
Cells were washed with PBS, lysed on ice with 200 µL/well PK assay buffer. […] Pyruvate kinase (PK) activity of the cell lysates (10 µg total protein) was analyzed by using the PK assay kit from abcam (ab83432) according to manufacturer´s instructions. The PKL activity in the cell lysates treated with the compounds was expressed as a percentage of the PK activity in the vehicle.

[2] = tested on: HEK293 cells; assay: HEK293 cell viability assay (CellTiter-Glo 2.0); format: cell-based; settings: 2 h
Description: Finally, the effects of tracer IV on cell viability were assessed. HEK293 cells were treated with IV at concentrations of 0, 0.01, 0.1, 1, and 10 µM for 2 h, after which cells were lysed, and intracellular ATP levels were quantified using the CellTiter‐Glo 2.0 assay (Figure S8a).
Figure S8. Cell viability assay (CellTiter-Glo 2.0) of HEK293 cells treated with different concentrations of tracer IV. (A) Cell viability assay performed on HEK293 cells incubated for 2 h with different concentrations of tracer IV or DMSO (0 nM IV) in FluoroBrite™ DMEM complete medium. Results are reported as relative luminescence values (mean ± SE, n=4, One Way ANOVA followed by Dunnett´s multiple comparison test). […] Results are reported as relative luminescence values (mean ± SE, n=4, One Way ANOVA followed by Dunnett´s multiple comparison test). […] Results are reported as relative luminescence values (mean ± SE, n=4, One Way ANOVA followed by Dunnett´s multiple comparison test).
The effect of tracer IV on cell viability was assessed using CellTiter-Glo 2.0 assay (Promega). This is a method that determines the number of viable cells by quantifying the amount of ATP in the metabolically active cells. […] Mono-oxygenation of luciferin catalyzed by luciferase in the presence of ATP will generate light which could be measured by luminometer. […]

[3] = tested on: PKLNluc and PKLwt; assay: Native PAGE in-gel fluorescence, PKLNluc and PKLwt; format: binding, human; settings: IV 2.5 or 10 µM
Description: To study the interaction of IV with PKLNluc and its oligomers, native PAGE was performed (Figure 4). Recombinant PKLNluc was incubated for 2 h with IV (0.15–10 µM) or DMSO and loaded onto gels. […] Colloidal blue staining and western blotting with anti‐PKL antibodies confirmed the predominance and identity of the bands (Figure S11a,d). […] PKM2 and PKL exist in equilibrium between oligomeric states, with PKM2 mainly dimeric when unbound.^[ [18] ^] As oligomerization regulates PK function,^[ [11], [54] ^] PKLNluc oligomerization was compared to PKLwt and PKM2 (Figure 4b,c). […] Colloidal blue and anti‐PKM2 blots confirmed PKM2 was mostly monomeric, explaining the lack of binding (Figure S11).
Recombinant PKLNLuc (4 x 950 ng) was incubated for 1 hour at ambient temperature with different concentrations of compound IV in a total volume of 60 µL Tris-HCl buffer pH 7.4 (50 mM Tris, 100 mM KCl, 10 mM MgCl2, 0.05% Tween 20). PKM2 and PKL recombinants (2 x 950 ng) were also incubated for 1 hour at ambient temperature with different concentrations of the compound IV (0, 2.5 and 10 µM). […]
A ChemiDoc imager (Bio-Rad, Alexa 488 filter) was used for fluorescence detection of compound IV bound to the proteins. […] The images of the in-gel fluorescence and luminescence detection were superimposed. […]

Chain of PKL (P30613 1-543 isoform P30613-2): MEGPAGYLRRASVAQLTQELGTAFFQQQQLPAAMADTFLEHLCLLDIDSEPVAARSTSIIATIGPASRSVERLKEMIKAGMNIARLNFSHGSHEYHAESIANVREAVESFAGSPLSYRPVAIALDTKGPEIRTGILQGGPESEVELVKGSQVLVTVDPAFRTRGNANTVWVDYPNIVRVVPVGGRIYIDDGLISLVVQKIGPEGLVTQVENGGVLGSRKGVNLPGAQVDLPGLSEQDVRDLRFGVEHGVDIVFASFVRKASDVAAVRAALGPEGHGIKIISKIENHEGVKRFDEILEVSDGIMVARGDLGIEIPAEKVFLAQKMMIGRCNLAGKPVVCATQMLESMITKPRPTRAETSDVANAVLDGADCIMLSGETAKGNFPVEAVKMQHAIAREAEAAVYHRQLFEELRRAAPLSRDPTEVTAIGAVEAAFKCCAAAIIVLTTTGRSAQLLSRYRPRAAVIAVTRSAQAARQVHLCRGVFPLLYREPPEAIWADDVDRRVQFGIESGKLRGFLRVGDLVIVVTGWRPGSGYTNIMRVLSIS

CN(C)c1ccc(S(=O)(=O)c2ccc3c(=O)n(Cc4cc[nH]n4)ncc3c2)c2nonc12 [Compound IV, 2-((1H-Pyrazol-3-yl)methyl)-6-((7-(dimethylamino)benzo[c][1,2,5]oxadiazol-4-yl)sulfonyl)phthalazin-1(2H)-one]
PKL activities (% of vehicle) 0.1 µM ([1]; 0.1 µM): 108 ± 3 % of vehicle | PKL activities (% of vehicle) 1 µM ([1]; 1 µM): 146 ± 4 % of vehicle | PKL activities (% of vehicle) 10 µM ([1]; 10 µM): 242 ± 7 % of vehicle | effect on cell viability (intracellular ATP) ([2]; HEK293, 0.01-10 µM): does not affect cell viability | effect on viability of transfected cells ([2]; HEK293 transfected with PKLNluc or Nluc plasmids, up to highest tested concentration): did not affect the viability | in-gel fluorescence labeling of oligomers [3]: labeling only of the tetramers | in-gel fluorescence labeling of oligomers ([3]; listed as LumiPK): exclusively to the tetrameric form of PKL
